This note sets out measurements from patent US20250179028A1, “ACRYLAMIDE COMPOUNDS” (NRG THERAPEUTICS LTD, priority 2022, published 2025).

Structures are written as SMILES. ≈ marks a conversion by molar mass, not a printed value.

The test system of data set [1] is mPTP. Put plainly: mPTP activity (Ca2+ retention) assay in isolated rat liver mitochondria. The note with it: isolated rat liver mitochondria; average value from multiple experiments (n ≥ 2). The format is biochemical. From the text: Pharmacological inhibition or modulation of the mPTP can be measured in well characterised ‘Ca^2+ retention’ assays performed in isolated mitochondria. In vitro isolated mitochondria rapidly sequester exogenous Ca^2+ until the intramitochondrial Ca^2+ concentration reaches the threshold for mPTP activation. Once the pore is activated, mitochondrial integrity is compromised and the stored Ca^2+ is released. The distribution of Ca^2+ between extra- and intra-mitochondrial compartments can be measured in real time with the use of membrane-impermeant Ca^2+ sensitive fluorescent dyes. Depending on the configuration of the assay, inhibition or modulation of the mPTP either delays the opening of the pore or increases the concentration of Ca^2+ required to induce mPTP opening.
MPTP activity was measured in mitochondria freshly isolated from female Sprague Dawley (250 to 300 gram) rat livers using the following method. Cervical dislocation was performed on the rat. The liver was then perfused in-situ with ˜40 ml cold Dulbecco's Phosphate Buffered Saline (DPBS) prior to dissection and transferred into 30 ml Isolation Buffer (250 mM Sucrose, 10 mM KCl, 1 mM EGTA, 1 mM EDTA, 25 mM HEPES, adjusted to pH 7.5 with 1 M NaOH). Each lobe of the liver was then removed from the buffer, minced using tweezers and a scalpel into ˜5 mm pieces then transferred into a 50 ml Potterton dounce homogenization tube on ice containing 30 ml ice-cold centrifugation buffer (300 mM Trehalose, 25 mM HEPES, 1 mM EGTA, 1 mM EDTA, 10 mM KCl, adjusted to pH 7.5 with 1 M NaOH and supplemented with 0.1% bovine serum albumin (BSA) and complete protease inhibitor cocktail (one tablet of inhibitor per 50 mls of buffer). Homogenisation was carried out using a teflon pestle at 1800 rpm. The slurry was centrifuged at 800 g for 10 min at 4° C., then the supernatant centrifuged at 10,000 g for 10 min. The pellet was washed once with FLIPR assay buffer (75 mM Mannitol, 25 mM Sucrose, 5 mM Potassium Phosphate Monobasic, 20 mM Tris base, 100 mM KCl, 0.1% BSA adjusted to pH 7.4 with 5M HCl) centrifuged again, then resuspended in FLIPR assay buffer to a concentration of 8.8 mg/ml protein.
Tested compounds (10 mM stock in DMSO) were serially diluted in DMSO in half log steps to generate 10 test concentrations (final concentrations in assay 30 μM to 1 nM). An intermediate dilution of 5 μl DMSO samples into 247 μl FLIPR assay buffer was carried out prior to transfer of 5 μl into duplicate wells of a 384 well polypropylene assay plate. Control wells were 0.5% (v/v) DMSO and 5 μM cyclosporin A.
A stock mitochondria/Fluo5N assay solution was prepared in 5.6 ml FLIPR assay buffer (at RT) supplemented with succinate disodium salt (10 mM), rotenone (1 μM), Fluo5N pentapotassium salt (2 μM) and 1 ml mitochondria suspension, then transferred (15 μl) into the assay plate containing test compounds and incubated for 10 min at RT. Assay plates were then transferred to a FLIPR Tetra plate reader (Molecular Devices). Dye fluorescence was then measured every 3 sec for a total of 10 min. After 12 sec, a 2.5 μl bolus of CaCl2 (75 μM) was added from a source plate containing 675 μM CaCl2 in FLIPR assay buffer. IC50 values for tested compounds were calculated using the fluorescence value collected at the 10 min timepoint with % inhibition calculated using the DMSO control and cyclosporin A values as […] respectively.

Data set [2] has as its target CYP2D6 (Homo sapiens (Human), UniProt P10635). Put plainly: Cytochrome P450 CYP2D6 inhibition in human liver microsomes. The format is in vitro ADME. The conditions noted are these: probe dextromethorphan 2 µM (dextrorphan formation); 1 uM test compound, human liver microsomes; average value from two experiments; negative values = no effective inhibition. As to the method:
Studies to assess tested compound mediated inhibition of cytochrome P450 enzyme isoform CYP2D6 were performed using human liver microsomes (BD Gentest) using either a single concentration (1 μM) of test compound or concentration response (0.1, 0.3, 1, 3, 10 and 30 μM) to derive an IC50. Tested compound solutions were prepared from 10 mM stocks in DMSO and diluted to 200 μM in DMSO. Reactions were prepared in a 96 deep well plate by combining 1 μl test compound with 179 μl reaction mixture (100 mM phosphate buffered saline (PBS), 0.2 mg/mL microsomes and 2 μM Dextromethorphan prepared from stocks as detailed below).
The positive control inhibitor, quinidine, was used at a final concentration of 0.5 μM when used at a single concentration. The final concentrations of quinidine used to derive an IC50 were 0, 0.1, 0.3, 1, 3, 10 and 30 μM. Plates were warmed at 37° C. for 15 min before starting reactions with 20 μl 10 mM NADPH solution in PBS and incubated for 20 min at 37° C. The assay is performed in duplicate. Reactions were quenched with 200 μl cold acetonitrile containing internal standards (200 nM labetalol, 200 nM alprazolam and 100 nM tolbutamide). The plate was centrifuged at 4000 rpm for 30 minutes, placed on ice for 20 minutes and then centrifuged at 4000 rpm for 30 minutes again to precipitate protein. 100 μL of the supernatant was transferred to a new plate and diluted with 100 μL pure water before being analysed using UPLC/MS/MS. The products of the transformation for dextromethorphan to dextrorphan was monitored by UPLC-MS/MS. The inhibition of CYP2D6 in human liver microsomes was measured as the percentage decrease in the activity of dextrorphan formation compared to non-inhibited controls (=100% activity). The IC50 value was calculated (test compound concentration which produces 50% inhibition) by using Excel Xlfit.
A general note: Microsomes from liver hold many membrane-bound enzymes, among them those of drug oxidation.

Data set [3] can be described thus: PBS and FaSSIF solubility. The format is physicochemical. The conditions noted are these: aqueous buffer, kinetic from dmso stock; PBS pH 7.4, 2 hr at 25° C.; read-out: Solubility PBS (pH 7.4). Here is the method:
Test compounds were prepared as 10 mM stocks in DMSO and 15 μl samples transferred in duplicate into 1.5 mL glass flat bottom vials (BioTech Solutions). Fasted state simulated intestinal fluid (FaSSIF) or PBS (pH 7.4) was added to each vial to final volume of 500 μl. One PTFE encapsulated stir stick (V&P Scientific) was placed in each vial before sealing with PTFE/SIL plugs (BioTech Solutions). Vials were shaken at 1100 rpm for 2 hr at 25° C. Samples were then filtered through MultiScreen Solvinert filter plates (Millipore) via vacuum filtration. Aliquots of filtrate (5 μl) plus 5 μl DMSO were diluted in 490 μl 50% acetonitrile in water containing internal standard. The filtrate was analysed and quantified against a standard of known concentration using LC-MS/MS. Solubility values of the test compound and control compound were calculated as follows: […]

Sequence of CYP2D6 (P10635 whole entry, canonical isoform): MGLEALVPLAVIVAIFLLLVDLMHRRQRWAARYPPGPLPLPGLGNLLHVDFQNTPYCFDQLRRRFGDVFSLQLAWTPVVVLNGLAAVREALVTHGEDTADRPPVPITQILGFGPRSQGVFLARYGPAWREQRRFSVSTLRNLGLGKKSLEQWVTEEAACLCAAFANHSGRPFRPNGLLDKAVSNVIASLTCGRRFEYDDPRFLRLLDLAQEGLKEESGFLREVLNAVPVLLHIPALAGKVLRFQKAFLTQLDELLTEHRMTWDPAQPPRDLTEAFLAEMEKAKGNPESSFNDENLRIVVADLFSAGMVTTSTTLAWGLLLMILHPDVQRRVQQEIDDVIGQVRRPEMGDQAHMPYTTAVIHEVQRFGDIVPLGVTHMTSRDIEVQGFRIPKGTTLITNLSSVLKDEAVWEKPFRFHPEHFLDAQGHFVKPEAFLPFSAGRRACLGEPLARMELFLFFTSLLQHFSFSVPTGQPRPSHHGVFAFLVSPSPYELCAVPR

As a reminder, the inhibition is the drop in the measured response relative to a control, in per cent. For orientation: solubility means how much of the substance goes into solution per volume. Regarding `Cc1c(F)cccc1NC(=O)/C=C/c1ccc2c(c1)NC(=O)C2(C)C` [Example 3, (E)-3-(3,3-dimethyl-2-oxoindolin-6-yl)-N-(3-fluoro-2-methylphenyl)acrylamide], in data set [1], the “mPTP Rat liver pIC50” value is listed as 6.4. Moreover, in data set [2], the inhibition at 20 min, 1 µM was -1.87%. Besides, the solubility at 2 h in data set [3] is 1.75 µM (≈ 0.592 µg/mL).

For `Cc1c(F)cccc1NC(=O)/C=C/c1ccc2c(c1)NC(=O)C21CC1` [Example 4, (E)-N-(3-fluoro-2-methylphenyl)-3-(2′-oxospiro[cyclopropane-1,3′-indolin]-6′-yl)acrylamide], the “mPTP Rat liver pIC50” value in data set [1] was 6.5. The inhibition at 20 min, 1 µM in data set [2] came out at 2.89%. Also, in data set [3], the solubility at 2 h turned out to be 0.31 µM (≈ 0.104 µg/mL).

`Cc1c(Cl)cccc1NC(=O)/C=C/c1ccc2oc(=O)[nH]c2c1` [Example 9, (E)-N-(3-chloro-2-methylphenyl)-3-(2-oxo-2,3-dihydrobenzo[d]oxazol-5-yl)acrylamide]: the “mPTP Rat liver pIC50” value in data set [1] came to 7.4. The inhibition at 20 min, 1 µM in data set [2] was -2.59%. For the same compound, the solubility at 2 h in data set [3] is 0.6 µM (≈ 0.197 µg/mL).

Regarding `CC(C)c1ccccc1NC(=O)/C=C/c1ccc2oc(=O)[nH]c2c1` [Example 13, (E)-N-(2-isopropylphenyl)-3-(2-oxo-2,3-dihydrobenzo[d]oxazol-5-yl)acrylamide], in data set [1], the “mPTP Rat liver pIC50” value is listed as 6.0. Moreover, in data set [2], the inhibition at 20 min, 1 µM was 3.84%. In addition, the solubility at 2 h in data set [3] turned out to be 5.3 µM (≈ 1.71 µg/mL).

Regarding `Cc1ccc(F)cc1NC(=O)/C=C/c1ccc2oc(=O)[nH]c2c1` [Example 17, (E)-N-(5-fluoro-2-methylphenyl)-3-(2-oxo-2,3-dihydrobenzo[d]oxazol-5-yl)acrylamide], the inhibition at 20 min, 1 µM in data set [2] turned out to be 1.91%. Further, the solubility at 2 h in data set [3] amounted to 0.15 µM (≈ 0.0468 µg/mL).

Consider `Cc1n[nH]c2cc(/C=C/C(=O)NC3c4ccccc4CC3C)ccc12` (stereo not drawn) [Example 38, (E)-3-(3-methyl-1H-indazol-6-yl)-N-(2-methyl-2,3-dihydro-1H-inden-1-yl)acrylamide], for which the “mPTP Rat liver pIC50” value in data set [1] came to 7.2. Further, in data set [2], the inhibition at 20 min, 1 µM was determined as 7.3%.

For the compound `Cc1n[nH]c2cc(/C=C/C(=O)Nc3cccc4cnn(C)c34)ccc12` [Example 39, (E)-3-(3-methyl-1H-indazol-6-yl)-N-(1-methyl-1H-indazol-7-yl)acrylamide], the “mPTP Rat liver pIC50” value in data set [1] worked out at 7.5. In data set [2], the inhibition at 20 min, 1 µM turned out to be 3.83%.

For the compound `Cc1n[nH]c2cc(/C=C/C(=O)NC3CCc4cc(F)ccc43)ccc12` (stereo not drawn) [Example 40, (E)-N-(5-fluoro-2,3-dihydro-1H-inden-1-yl)-3-(3-methyl-1H-indazol-6-yl)acrylamide], the “mPTP Rat liver pIC50” value in data set [1] is listed as 6.6. Further, the inhibition at 20 min, 1 µM in data set [2] worked out at 6.65%.

With `Cc1cc(NC(=O)/C=C/c2ccc3c(C)n[nH]c3c2)ccc1F` [Example 41, (E)-N-(4-fluoro-3-methylphenyl)-3-(3-methyl-1H-indazol-6-yl)acrylamide], the “mPTP Rat liver pIC50” value in data set [1] is listed as 7.1. In data set [2], the inhibition at 20 min, 1 µM is 1.2%.

With `Cc1ccc(NC(=O)/C=C/c2ccc3c(C)n[nH]c3c2)cc1F` [Example 42, (E)-N-(3-fluoro-4-methylphenyl)-3-(3-methyl-1H-indazol-6-yl)acrylamide], the “mPTP Rat liver pIC50” value in data set [1] turned out to be 6.1. In addition, the inhibition at 20 min, 1 µM in data set [2] was -1.97%.

Take `CC1Cc2ccccc2C1NC(=O)/C=C/c1ccc2c(C#N)n[nH]c2c1` (stereo not drawn) [Example 44, (E)-3-(3-cyano-1H-indazol-6-yl)-N-(2-methyl-2,3-dihydro-1H-inden-1-yl)acrylamide]: in data set [1], the “mPTP Rat liver pIC50” value stood at 7.1. In addition, the inhibition at 20 min, 1 µM in data set [2] amounted to 8.94%.

On to `Cc1c(Cl)cccc1N(C)C(=O)/C=C/c1ccc2oc(=O)[nH]c2c1` [Example 48, (E)-N-(3-chloro-2-methylphenyl)-N-methyl-3-(2-oxo-2,3-dihydrobenzo[d]oxazol-5-yl)acrylamide], for which the “mPTP Rat liver pIC50” value in data set [1] was 5.9. Further, the inhibition at 20 min, 1 µM in data set [2] was 6.34%.

`CC1CCCC1NC(=O)/C=C/c1ccc2oc(=O)[nH]c2c1` (stereo not drawn) [Example 49, (E)-N-(2-methylcyclopentyl)-3-(2-oxo-2,3-dihydrobenzo[d]oxazol-5-yl)acrylamide]: in data set [1], the “mPTP Rat liver pIC50” value was 5.8. Also, the inhibition at 20 min, 1 µM in data set [2] is 4.52%.
